Results on nine compounds are retold here after ChEMBL document CHEMBL1201862, “PubChem BioAssay data set” (2004).

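Cells were grown in 96-well plates and exposed to each compound for 48 hours at five concentrations; endpoints were interpolated linearly between bracketing concentrations, or set to the highest concentration if not reached. GI50: concentration for 50% inhibition of growth.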 Active and inactive are the calls of the source. Rule as the data show it: active = GI50 up to about 1.1 µM and inactive = higher.

Test systems include EKVX; UACC-62; SK-MEL-2; CAKI-1; HCC 2998; OVCAR-3; ACHN; TK-10; U-251; A549; M14; NCI-H522; 786-0; UO-31; HCT-116.
Holding throughout (test): NCI tumour cell line growth inhibition, 48 h

Consider `Cc1ccc(S(=O)(=O)N/N=C\c2c3ccccc3[n+]([O-])c3ccccc23)cc1`, for which the GI50 in the test with EKVX was 20 µM (inactive); in the test on UACC-62, 5.55 µM (inactive); with SK-MEL-2, 4.41 µM (inactive); with CAKI-1, 6.28 µM (inactive); in the test on HCC 2998, 8.57 µM (inactive); in the test with OVCAR-3, 16.1 µM (inactive). Moreover, the GI50 was 2.7 µM (inactive) with ACHN; 4.9 µM (inactive) with TK-10; 3.93 µM (inactive) with U-251; 5.12 µM (inactive) in the test with A549; 4.57 µM (inactive) in the test on M14; 2.02 µM (inactive) in the test on NCI-H522. Moreover, the GI50 in the test on 786-0 was 2.01 µM (inactive); in the test with UO-31, 14.1 µM (inactive); with HCT-116 it was 0.472 µM (active).
Consider `CCCCC(C(=O)C(=O)NC1C2CC3CC(C2)CC1C3)C(=O)C(C)C` (stereo not given), for which the GI50 with EKVX, with UACC-62, with SK-MEL-2, with CAKI-1, with HCC 2998 and with OVCAR-3 was > 100 µM (inactive) in each case. Moreover, the GI50 in the test on ACHN, in the test with TK-10, with U-251, in the test with A549, with M14 and with NCI-H522 was > 100 µM (inactive) throughout. The GI50 in the test on 786-0, with UO-31 and in the test with HCT-116 was > 100 µM (inactive) throughout.
As for `CCCN(CCCC(NC(C)=O)C(=O)NCc1ccccc1)C(=O)NC` (stereo not given), the GI50 in the test with EKVX, with UACC-62, in the test on SK-MEL-2, in the test with CAKI-1, in the test on HCC 2998 and with OVCAR-3 was > 100 µM (inactive) throughout. In addition, the GI50 in the test with ACHN, in the test with TK-10, in the test with U-251, with A549, with M14 and in the test on NCI-H522 was > 100 µM (inactive) in each case. Moreover, the GI50 with 786-0, in the test on UO-31 and in the test with HCT-116 was > 100 µM (inactive) throughout.
On to `NC(=S)N/N=C(/CC(=O)c1ccccc1)C(=O)Nc1ccc(Cl)c(Cl)c1`, for which the GI50 is 33 µM (inactive) with EKVX; 27.4 µM (inactive) in the test with UACC-62; 78.2 µM (inactive) in the test with SK-MEL-2; 68.5 µM (inactive) in the test with CAKI-1; 93.5 µM (inactive) in the test with HCC 2998; 37.3 µM (inactive) in the test on OVCAR-3. The GI50 in the test on ACHN was 75.2 µM (inactive); with TK-10 it was > 100 µM (inactive); in the test with U-251, 59 µM (inactive); in the test on A549 it was > 100 µM (inactive); with M14 it was > 100 µM (inactive); in the test with NCI-H522 it was 21.6 µM (inactive). Further, the GI50 was 59.7 µM (inactive) in the test with 786-0, 51.2 µM (inactive) in the test with UO-31 and > 100 µM (inactive) in the test with HCT-116.
Regarding `COc1ccccc1NC(=O)C(CC(C(=O)Nc1ccccc1OC)/C(C)=N/Nc1ccc([N+](=O)[O-])cc1[N+](=O)[O-])/C(C)=N/Nc1ccc([N+](=O)[O-])cc1[N+](=O)[O-]` (stereo not given), the GI50 in the test with EKVX was > 88.7 µM (inactive); in the test on UACC-62, > 100 µM (inactive); in the test with SK-MEL-2, > 100 µM (inactive); in the test with CAKI-1, 41 µM (inactive); in the test with HCC 2998, > 82 µM (inactive); with OVCAR-3, 77.4 µM (inactive). The GI50 with ACHN is > 86.1 µM (inactive); in the test with TK-10, 14.6 µM (inactive); in the test with U-251, > 100 µM (inactive); in the test on A549, > 65.5 µM (inactive); in the test on M14, 40.4 µM (inactive); with NCI-H522, > 73.1 µM (inactive). For the same compound, the results for the GI50 in the test on 786-0, with UO-31 and in the test with HCT-116 were > 100 µM (inactive), 27 µM (inactive) and > 59.3 µM (inactive), respectively.
As to `c1ccc(C2=NOC3COc4ccccc4OCC23)cc1` (stereo not given), the GI50 is > 100 µM (inactive) in the test on EKVX; > 100 µM (inactive) in the test with UACC-62; > 100 µM (inactive) in the test on SK-MEL-2; 97.5 µM (inactive) in the test with CAKI-1; > 100 µM (inactive) in the test with HCC 2998; > 100 µM (inactive) in the test with OVCAR-3. Also, the GI50 with ACHN, in the test on TK-10, in the test with U-251, in the test on A549, with M14 and with NCI-H522 was > 100 µM (inactive) each time. Besides, the GI50 in the test with 786-0 is > 100 µM (inactive); in the test on UO-31, 77.1 µM (inactive); with HCT-116, > 100 µM (inactive).
Take `O=C(/C=C/c1ccccc1Cl)NC1C=Nc2ccc([N+](=O)[O-])cc2NC1` (stereo not given): the GI50 is > 100 µM (inactive) in the test with EKVX; > 100 µM (inactive) in the test with UACC-62; > 100 µM (inactive) in the test with SK-MEL-2; 66.8 µM (inactive) in the test on CAKI-1; > 100 µM (inactive) in the test with HCC 2998; 42.3 µM (inactive) in the test on OVCAR-3. Also, the GI50 was 39.7 µM (inactive) with ACHN; > 100 µM (inactive) with TK-10; 35.3 µM (inactive) in the test with U-251; > 100 µM (inactive) in the test on A549; > 100 µM (inactive) in the test on M14; 22.6 µM (inactive) in the test with NCI-H522. For the same compound, the GI50 in the test on 786-0 is 44.8 µM (inactive); in the test with UO-31 it was 24.4 µM (inactive); in the test with HCT-116, 59.6 µM (inactive).
In the case of `CCOC(=O)N1C/C(=C\c2ccc(N(C)C)cc2)C(=O)/C(=C/c2ccc(N(C)C)cc2)C1`, the GI50 in the test with EKVX, in the test on UACC-62, with SK-MEL-2, with CAKI-1, in the test with HCC 2998 and in the test on OVCAR-3 was > 100 µM (inactive) in each case. Besides, the GI50 with ACHN, with TK-10, with U-251, with A549, with M14 and in the test with NCI-H522 was > 100 µM (inactive) throughout. Besides, the GI50 with 786-0, in the test on UO-31 and in the test with HCT-116 was > 100 µM (inactive) each time.
For the compound `Cn1c(-c2ccccc2)c/c(=N\NS(C)(=O)=O)c2cc(S(=O)(=O)O)ccc21`, the GI50 with EKVX, in the test with UACC-62, in the test with SK-MEL-2, in the test on CAKI-1, in the test on HCC 2998 and in the test on OVCAR-3 was > 100 µM (inactive) each time. Further, the GI50 in the test with ACHN, in the test with TK-10, in the test on U-251, in the test with A549, in the test on M14 and in the test with NCI-H522 was > 100 µM (inactive) each time. For the same compound, the GI50 in the test with 786-0, in the test with UO-31 and with HCT-116 was > 100 µM (inactive) each time.
